“And” between values parts separate entries of the source, which are not always exact repeats. Equal entries are not always repeated. Where two headings read alike, the source gives them in different places.
Experiments:
[1] = Plasma pharmacokinetics of pomalidomide and its enantiomers (chiral LC–MS/MS) after a single oral 2 mg dose of [14C]pomalidomide; assay type: in vivo, human; details: for C max: healthy male subjects; for C max / AUC0−t / AUC0−∞ / t ½: mean ± SD (n = 8); for T max: median (min–max)
Description: This was an open-label, in-patient, single-dose study in eight non-smoking healthy male adult volunteers conducted in accordance with Good Clinical Practices (GCP) and in compliance with the Declaration of Helsinki. The protocol and consent form were reviewed and approved by the appropriate institutional review board, and all study participants gave written informed consent, before initiation of any study-related procedure. Male subjects were eligible based on standard inclusion/exclusion criteria and were excluded if they had exposure to excess radiation or participated in a study involving radioisotopes within the previous 12 months. Subjects entered the study center on the day prior to dosing and remained at the center for up to 15 days following dosing or until the total radioactivity recovered in excreta was ≥90 % or the radioactivity recovered in excreta per day on three consecutive days was ≤1 % of the administered radioactive dose.
Each subject was administered a single oral suspension of 2 mg (100 μCi) of [^14C]pomalidomide in seltzer water (75 mL) followed by administration of an additional 140 mL of distilled water. Subjects were fasted for 8 h prior to and 4 h following dose administration. The residual radioactivity in the dosing vials was determined, and for six of the eight subjects (subjects 1–4, 6 and 8), the administered dose (1.93–2.02 mg) was close to the target dose of 2 mg. For subjects 5 and 7, a significant amount of radioactivity remained in the dose vial, resulting in administered doses of 1.59 and 1.51 mg, respectively. Calculations for percent of dose recovered in excreta were based on the actual administered doses.
Blood was collected into pre-chilled K3EDTA tubes at pre-dose, 0.5, 1, 1.5, 2, 2.5, 3, 4, 6, 8, 10, 12, 24, 48, 72, 120 and 168 h following dose administration. Blood for radioactivity counting was transferred to a clean tube and stored at or below 4 °C until analyzed. Plasma was harvested by centrifugation from the remaining blood. A plasma sample for radioactivity counting was transferred to a fresh tube. Three plasma aliquots were transferred to tubes containing citric acid for metabolite profiling and for determination of pomalidomide enantiomer concentrations in plasma. Urine was collected pre-dose, 0–6, 6-12, 12–24 and every 24 h thereafter up to 216 h (9 days) following dose administration and were stabilized with one volume of pH 1.5 Sorensen’s citrate buffer (25 mM sodium citrate buffer adjusted to pH 1.5). During the 12- to 24-h collection interval for subject 4, approximately 550 mL of urine was inadvertently poured into the wrong collection urinal and the sample was lost. […] Individual fecal samples were collected pre-dose and for up to 9 days following dose administration, and homogenized using approximately three volumes by weight of pH 1.5 Sorensen’s citrate buffer. All urine, fecal homogenates and plasma samples were stored at or below −20 °C until analyzed.
Plasma concentrations of each pomalidomide enantiomer were determined using a chiral LC–MS/MS assay. The pomalidomide enantiomers and ^13C-labeled pomalidomide (internal standard; IS) were extracted from plasma (stabilized with citric acid) using liquid–liquid extraction with methyl tertiary butyl ether. After transfer to a new tube, the solvent was evaporated, and the samples were reconstituted and injected for LC–MS/MS analysis using a Chiral AGP (50 × 3.0 mm, 5 μm; Chrom Tech, Inc., Apple Valley, MN) analytical column. Positive ions were measured in the multiple reaction monitoring (MRM) mode using a Sciex API-4000 tandem mass spectrometer equipped with a Turbo Ion Spray source. For the QC samples, the accuracy ranged from 91.0 to 106.9 %. For study samples, the amount of [^14C]-labeled material was accounted for when calculating the concentration of enantiomers in plasma using an appropriate correction factor. […]

[2] = cited from earlier work
[3] = Plasma pharmacokinetics of pomalidomide and circulating metabolites by radiochromatography (metabolite profiling); assay type: in vivo, human; parameters: key to Plasma (% AUC relative to TRA): ND: not detected; D: detected by MS, but at concentrations too low to accurately quantify by radiochromatography; AUC0–24 / AUC0−∞: concentration or dose not given beside the values; details: for Plasma (% AUC relative to TRA): AUC0–24 (unchanged drug or metabolite)/AUC0–24 (TRA) * 100 %; for AUC/AUCTRA: plasma exposure relative to total radioactivity
Method: Individual plasma samples collected from all subjects at 1, 2.5, 4, 6, 10, 12 and 24 h post-dose were analyzed for metabolite profiling. Samples were extracted with acetonitrile, the supernatant was removed, and the pellet was washed with 0.1 % formic acid in water and extracted again with acetonitrile. The combined supernatants were adjusted to 15 or 25 mL by adding acetonitrile then evaporated to dryness under a stream of nitrogen. The residues were re-suspended in 0.1 % formic acid in water, assayed for extraction recovery and analyzed for metabolite profiling. A control plasma sample spiked with [^14C]pomalidomide was extracted in a similar manner to determine the extraction efficiency and stability of [^14C]pomalidomide.
(§1) HPLC analysis for metabolite profiling (HPLC Method 1) was performed using a Waters 2695 Alliance Separation Module (Waters Corp., Milford, MA) with the autosampler set to 4 °C. [^14C]Pomalidomide and metabolites were separated using an ACE C18 column (150 × 4.6 mm, 3 μm; Advanced Chromatography Technologies, Aberdeen, Scotland) equipped with an ACE C18 guard column (10 × 3 mm, 3 μm). The mobile phases used were 25 mM ammonium acetate in water: pH 5.5 with formic acid (mobile phase A) and methanol (mobile phase B). The column temperature was 30 °C, and the flow rate was 0.7 mL/min. The linear gradient was delivered as follows: 0–2 min 100 % A; 2–38 min to 64 % A; 38–44 min to 0 % A; 44–48 min hold at 0 % A; return to initial conditions over 2 min.
(§2) Radioactivity profiles for plasma and excreta were determined by collecting the column eluate into 96-well Deepwell LumaPlates™ at a rate of 0.25 min/fraction. The plates were dried and the radioactivity in each well determined using a PerkinElmer TopCount® NXT™ Microplate Scintillation Counter. HPLC radiochromatograms were reconstructed using LC-ARC data handling software.
For pomalidomide and metabolite concentrations in plasma based on metabolite profiling data, pharmacokinetic data were generated by non-compartmental analysis of plasma versus time profiles using WinNonlin (version 4.1, Enterprise Edition).

[4] = Metabolite profiling of urine and feces (% of dose excreted); assay type: in vivo, human; parameters: key to % of dose excreted, Feces / % of dose excreted, Urine: ND: not detected; D: detected by MS, but at concentrations too low to accurately quantify by radiochromatography; details: radiochromatography; for % of dose excreted, Urine: pooled urine 0–72 h; for % of dose excreted, Feces: pooled feces 0–96 h
Method: For each subject, urine samples were pooled using an equal percentage by volume of the 0–6, 6–12, 12–24, 24–48 and 48–72 h samples. Pools of the 0–6, 6–12, 12–24, 24–48 and 48-72 h collections were also prepared across subjects and analyzed for metabolite profiling. Samples were mixed and centrifuged prior to the supernatants being transferred to fresh tubes for metabolite profiling analysis.
For each subject, fecal homogenates for metabolite profiling were pooled using an equal percentage by weight of the 0–24, 24–48, 48–72 and 72–96 h samples. Pools of the 0–24, 24-48, 48–72 and 72–96 h collections were also prepared across subjects and analyzed for metabolite profiling. An aliquot of each pool was extracted with acetonitrile; samples were mixed and centrifuged. The supernatant was removed and the pellets re-suspended with 0.1 % formic acid and extracted with acetonitrile. The combined supernatants were evaporated to dryness under a stream of nitrogen and the residue re-suspended in methanol:0.1 % formic acid in water (1:1). Samples were assayed for extraction recovery prior to metabolite profiling. A control fecal homogenate spiked with [^14C]pomalidomide was extracted in a similar manner to determine the extraction efficiency and stability of [^14C]pomalidomide.
as §1, §2

H929 MM cell = assay: Inhibition of MM cell proliferation ([3H]-thymidine incorporation, 3-day culture); assay type: cell-based; details: Homo sapiens, NCI-H929
Method: (§3) Metabolites and hydrolysis products of pomalidomide were tested for pharmacological activity in the following three assay systems: (1) inhibition of MM cell proliferation, (2) enhancement of primary human T cell IL-2 production and (3) inhibition of TNF-α production by lipopolysaccharide (LPS)-stimulated human peripheral blood mononuclear cells (PBMC). For all three assay types, compounds were dissolved in 100 % dimethyl sulfoxide (DMSO) and diluted into complete cell culture medium, consisting of Roswell Park Memorial Institute (RPMI)-1640 plus penicillin, streptomycin and L-glutamine (Mediatech, Manassas, VA). The MM cell proliferation cell culture medium contained 10 % fetal bovine serum, while the primary human cell cultures contained 10 % human AB serum (Invitrogen, Brown Deer, WI). The final DMSO concentration in the cell culture media was 0.25 %.
(§4) The human MM cell line OPM-2 was obtained from DSMZ (Braunschweig, Germany), and human MM cell lines U266 B1 and NCI-H929 were obtained from ATCC (Manassas, VA). Inhibition of MM cell proliferation was assessed by the [^3H]-thymidine incorporation assay in a 3-day culture in the presence of compounds in complete medium, as previously described. Primary human T cells were isolated from PBMC by negative selection using the RosetteSep T Cell Enrichment Cocktail (STEMCELL Technologies, Tukwila, WA) according to the manufacturer’s procedures. Costimulation of T cell IL-2 production was measured in a 2-day culture of primary human T cells isolated from healthy donors stimulated with anti-CD3 antibody in the presence of compounds, as previously described. Inhibition of TNF-α production by LPS-stimulated human PBMC was measured in a 1-day culture in the presence of compound, as previously described.

OPM-2 MM cell = assay: as above; assay type: cell-based; details: Homo sapiens
Method: as §3, §4

U266 MM cell = assay: as above; assay type: cell-based; details: Homo sapiens, U-266
Method: as §3, §4

T cell IL-2 production = assay: Enhancement of primary human T cell IL-2 production (anti-CD3 stimulated, 2-day culture); assay type: cell-based; details: 48 h, anti-CD3 stimulated primary human T cells
Method: as §3, §4

PBMC TNF-α production = assay: Inhibition of TNF-α production by LPS-stimulated human PBMC (1-day culture); assay type: cell-based; details: 24 h
Method: as §3, §4

[5] = lenalidomide, listed as lenalidomide
[6] = plasma, radiochromatography, geometric mean (%CV)
[7] = plasma, radiochromatography, median and range

SMILES	Plasma (% AUC relative to TRA) [3]	AUC/AUCTRA [3] [%]	AUC0–24 [3, 6]	AUC0−∞ [3, 6]	C max [3, 6]	% of dose excreted, Urine [4]	IC50 (H929 MM cell) [µM]	IC50 (OPM-2 MM cell) [µM]	IC50 (U266 MM cell) [µM]	EC50 (T cell IL-2 production) [µM]	IC50 (PBMC TNF-α production) [µM]	further results
Nc1cccc2c1C(=O)N([C@@H]1CCC(=O)NC1=O)C2=O (single isomer, unassigned) [R-enantiomer]	–	–	–	–	–	–	–	–	–	–	–	C max [1]: 6.36 ± 2.08 ng/mL; AUC0−t [1]: 67.7 ± 33.8 ng·h/mL; AUC0−∞ [1]: 95.1 ± 46.1 ng·h/mL; t ½ [1]: 9.5 ± 3.2 h; T max [1]: 3.0 (2.5–6.0) h
Nc1cccc2c1C(=O)N([C@H]1CCC(=O)NC1=O)C2=O (single isomer, unassigned) [S-enantiomer]	–	–	–	–	–	–	–	–	–	–	–	C max [1]: 6.78 ± 1.99 ng/mL; AUC0−t [1]: 66.9 ± 34.1 ng·h/mL; AUC0−∞ [1]: 96.4 ± 58.2 ng·h/mL; t ½ [1]: 8.8 ± 4.5 h; T max [1]: 3.0 (1.0–6.0) h
Nc1cccc2c1CN(C1CCC(=O)NC1=O)C2=O (stereo not drawn) [Lenalidomide, lenalidomide]	–	–	–	–	–	–	–	–	–	–	–	Percent dose excreted in human urine, Metabolites (oxidative and conjugative) ([2]; lenalidomide): 5.3%; Percent dose excreted in human urine, Parent ([2]; lenalidomide): 81.7%; Percent dose excreted in human urine, Total ([2]; lenalidomide): 90.3%; Percent dose excreted in human urine, Parent [2, 5]: > 80%; Percent dose excreted in human urine, Total [2, 5]: > 90%
Nc1cccc(C(=O)O)c1C(=O)O [Metabolite M2, 3-Aminophthalic acid]	1.7%	1.71	3.31 (28.4) ngEq*h/mL	4.27 (12.7) ngEq*h/mL	0.238 (36.3) ngEq/mL	1.4%	–	–	–	–	–	Tmax ([3]; human, oral, 2 mg, plasma, radiochromatography, median and range): 6 h; half-life ([3]; male, human, plasma, oral, 2 mg, plasma, radiochromatography, geometric mean (%CV), read-out: t ½ (converted)): 13.2 h
NC(=O)C(CCC(=O)O)N1C(=O)c2cccc(N)c2C1=O (stereo not drawn) [Metabolite M10]	–	–	–	–	–	1.5%	> 1	> 1	> 1	0.72	> 10	% of dose excreted, Feces [4]: 0.3%
Nc1c(O[C@@H]2O[C@H](C(=O)O)[C@@H](O)[C@H](O)[C@H]2O)ccc2c1C(=O)N(C1CCC(=O)NC1=O)C2=O (stereo partly drawn) [Metabolite M12]	4.6%	4.59	8.90 (20.9) ngEq*h/mL	10.1 (30.2) ngEq*h/mL	0.664 (23.5) ngEq/mL	17% and 17.1%	–	–	–	–	–	t ½ [3, 6]: 9.06 (18.7) h; T max [3, 7]: 2.5 (1.0–6.0) h
Nc1c(O[C@@H]2O[C@H](C(=O)O)[C@@H](O)[C@H](O)[C@H]2O)ccc2c1C(=O)N(C1CCC(=O)NC1=O)C2=O (stereo partly drawn) [Metabolite M13]	2.0%	1.99	3.86 (54.0) ngEq*h/mL	5.99 (48.9) ngEq*h/mL	0.362 (31.7) ngEq/mL	12% and 12.4%	–	–	–	–	–	t ½ [3, 6]: 9.97 (43.6) h; T max [3, 7]: 3.25 (1.0–6.0) h
CC(=O)Nc1cccc2c1C(=O)N(C1CCC(=O)NC1=O)C2=O (stereo not drawn) [Metabolite M18, N-acetyl pomalidomide]	D	–	–	–	–	0.1%	> 1	> 1	> 1	> 10	> 10	% of dose excreted, Feces [4]: D
Nc1cccc2c1C(=O)N(C1CC(O)C(=O)NC1=O)C2=O (stereo not drawn) [Metabolite M19]	D	–	–	–	–	D	> 1	> 1	> 1	1.5	2.3	–
O=C1CCC(N2C(=O)c3ccccc3C2=O)C(=O)N1 (stereo not drawn) [Thalidomide, thalidomide]	–	–	–	–	–	–	–	–	–	–	–	Percent dose excreted in human urine, Hydrolysis products ([2]; thalidomide): 87.2%; Percent dose excreted in human urine, Metabolites (oxidative and conjugative) ([2]; thalidomide): Trace; Percent dose excreted in human urine, Parent ([2]; thalidomide): 1.8%; Percent dose excreted in human urine, Total ([2]; thalidomide): 91.9%; Percent dose excreted in human urine, Total ([2]; thalidomide, listed as thalidomide): > 90%
